Experimental data reported in patent US20020137929A1, “1 - (3-heterocyclylphenyl) isothiourea, -isourea, -guanidine and -amidine herbicidal agents” (Intellectual Property Department, BASF Aktiengesellschaft, priority 1998, published 2002).

Tests used:
[1] = tested on: GLXMAW (Soybean, Williams); assay: Postemergence herbicidal evaluation; format: in vivo, Glycine max, (L.) Merr. cv Williams; settings: postemergence
Summary of the method: (§1)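 Two-week-old seedlings sprayed with compound in 50/50 acetone/water plus 0.5% TWEEN 20, at about 0.0156 to 0.500 kg/ha, nozzle at 40 psi. Kept in greenhouse; rated visually 4-5 weeks after treatment on a 0-9 scale versus control, repeat tests averaged.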

GALAP (Galium) = assay: Preemergence herbicidal evaluation; format: in vivo, Galium aparine; settings: rated 4-5 weeks after treatment
Summary of the method: (§2)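 Scores (0–9) reflect visual comparison with control plants for stand, vigor, malformation, size and chlorosis. Compound was applied to the soil after sowing, before emergence, as an aqueous acetone spray (about 0.0156–0.500 kg/ha), and cups were kept in a greenhouse for 4–5 weeks.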

AMBEL (Ragweed, Common) [2] = assay: Postemergence herbicidal evaluation; format: in vivo, Ambrosia artemisifolia; settings: postemergence
Summary of the method: as §1

[3] = tested on: IPOHE (Morningglory, Ivyleaf); assay: Postemergence herbicidal evaluation; format: in vivo, Ipomoea hederacea; settings: postemergence
Summary of the method: as §1

CYPSE (Flatsedge) = assay: Preemergence weed control under flooded paddy conditions; format: in vivo, Cyperus serotinus; settings: rated 3-4 weeks after treatment
Summary of the method: (§3)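 First, seeds or propagules go into the top 0.5 cm of silt loam; next, water is held 1.5 to 3 cm over the soil; then compound (50/50 acetone/water) is pipetted into it at about 0.0313 to 0.500 kg/ha; finally plants are rated visually 0-9 after three to four weeks.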

ZEAMX (Corn, Field) = assay: Postemergence herbicidal evaluation; format: in vivo, Zea mays; settings: postemergence
Summary of the method: as §1

ECHCG (Barnyardgrass) = assay: Preemergence herbicidal evaluation; format: in vivo, Echinochloa crus-galli; settings: rated 4-5 weeks after treatment
Summary of the method: as §2

ABUTH (Velvetleaf) = assay: Preemergence herbicidal evaluation; format: in vivo, Abutilon theophrasti; settings: rated 4-5 weeks after treatment
Summary of the method: as §2

SETVI (Foxtail, Green) = assay: Preemergence herbicidal evaluation; format: in vivo, Setaria viridis; settings: rated 4-5 weeks after treatment
Summary of the method: as §2

[4] = tested on: SAGPY (Arrowhead (Pygmaea)); assay: Preemergence weed control under flooded paddy conditions; format: in vivo, Sagittaria pygmaea; settings: rated 3-4 weeks after treatment
Summary of the method: as §3

[5] = tested on: GLXMAW (Soybean, Williams); assay: Preemergence herbicidal evaluation; format: in vivo, Glycine max, (L.) Merr. cv Williams; settings: rated 4-5 weeks after treatment
Summary of the method: as §2

AMBEL (Ragweed, Common) [6] = assay: Preemergence herbicidal evaluation; format: in vivo, Ambrosia artemisifolia; settings: rated 4-5 weeks after treatment
Summary of the method: as §2

CASOB (Sicklepod) = assay: Preemergence herbicidal evaluation; format: in vivo, Cassia obtusifolia; settings: rated 4-5 weeks after treatment
Summary of the method: as §2

[7] = tested on: ECHORC (Watergrass (Calif.)); assay: Postemergence weed control under flooded paddy conditions; format: in vivo, Echinochloa oryzoides; settings: postemergence weeds, rated 3 to 4 weeks after treatment
Summary of the method: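 Weeds 3 to 5 cm tall and rice seedlings at the 1.5 to 2.5 leaf stage were flooded, with water held 1.5 to 3 cm above the soil. Compounds in 50/50 v/v aqueous/acetone went into the flood water at about 0.0313 to 0.500 kg/ha. Visual 0-9 ratings versus control were made 3 to 4 weeks later.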

CCOC(=O)[C@H](Cc1ccccc1)N1C(=O)CSC1=Nc1cc(-n2c(=O)cc(C(F)(F)F)n(C)c2=O)c(F)cc1Cl [Compound 80, Ethyl α-benzyl-2-{{2-chloro-5-[3,6-dihydro-3-methyl-2,6-dioxo-4-(trifluoromethyl)-1(2H)-pyrimidinyl]-4-fluorophenyl}imino}-4-oxo-3-thiazolidineacetate, L-]
GLXMAW herbicidal rating ([1]; rate 0.0158 kg/ha): 4.5 | GLXMAW herbicidal rating ([1]; rate 0.0315 kg/ha): 5.5 | GLXMAW herbicidal rating ([1]; rate 0.0630 kg/ha): 6.5 | Preemergence herbicidal rating GALAP (GALAP (Galium); rate 0.0156 kg/ha): 0.0 | Preemergence herbicidal rating GALAP (GALAP (Galium); rate 0.0313 kg/ha): 0.0 | Preemergence herbicidal rating GALAP (GALAP (Galium); rate 0.0625 kg/ha): 0.0 | Preemergence herbicidal rating GALAP (GALAP (Galium); rate 0.1250 kg/ha): 4.0 | Preemergence herbicidal rating GALAP (GALAP (Galium); rate 0.2500 kg/ha): 4.0 | AMBEL herbicidal rating (AMBEL (Ragweed, Common) [2]; rate 0.0158 kg/ha): 9.0 | AMBEL herbicidal rating (AMBEL (Ragweed, Common) [2]; rate 0.0315 kg/ha): 9.0 | AMBEL herbicidal rating (AMBEL (Ragweed, Common) [2]; rate 0.0630 kg/ha): 7.0 | IPOHE herbicidal rating ([3]; rate 0.0158 kg/ha): 9.0 | IPOHE herbicidal rating ([3]; rate 0.0315 kg/ha): 9.0 | IPOHE herbicidal rating ([3]; rate 0.0630 kg/ha): 9.0 | CYPSE herbicidal effect rating (CYPSE (Flatsedge); 0.0313 kg/ha): 3.0 | CYPSE herbicidal effect rating (CYPSE (Flatsedge); 0.0625 kg/ha): 3.0 | CYPSE herbicidal effect rating (CYPSE (Flatsedge); 0.1250 kg/ha): 3.0 | CYPSE herbicidal effect rating (CYPSE (Flatsedge); 0.2500 kg/ha): 4.0 | ZEAMX herbicidal rating (ZEAMX (Corn, Field); rate 0.0158 kg/ha): 5.0 | ZEAMX herbicidal rating (ZEAMX (Corn, Field); rate 0.0315 kg/ha): 5.0 | ZEAMX herbicidal rating (ZEAMX (Corn, Field); rate 0.0630 kg/ha): 5.5 | Preemergence herbicidal rating ECHCG (ECHCG (Barnyardgrass); rate 0.0156 kg/ha): 0.0 | Preemergence herbicidal rating ECHCG (ECHCG (Barnyardgrass); rate 0.0313 kg/ha): 0.0 | Preemergence herbicidal rating ECHCG (ECHCG (Barnyardgrass); rate 0.0625 kg/ha): 0.0 | Preemergence herbicidal rating ECHCG (ECHCG (Barnyardgrass); rate 0.1250 kg/ha): 1.0 | Preemergence herbicidal rating ECHCG (ECHCG (Barnyardgrass); rate 0.2500 kg/ha): 0.0 | Preemergence herbicidal rating ABUTH (ABUTH (Velvetleaf); rate 0.0156 kg/ha): 0.0 | Preemergence herbicidal rating ABUTH (ABUTH (Velvetleaf); rate 0.0313 kg/ha): 1.0 | Preemergence herbicidal rating ABUTH (ABUTH (Velvetleaf); rate 0.0625 kg/ha): 9.0 | Preemergence herbicidal rating ABUTH (ABUTH (Velvetleaf); rate 0.1250 kg/ha): 9.0 | Preemergence herbicidal rating ABUTH (ABUTH (Velvetleaf); rate 0.2500 kg/ha): 9.0 | Preemergence herbicidal rating SETVI (SETVI (Foxtail, Green); rate 0.0156 kg/ha): 0.0 | Preemergence herbicidal rating SETVI (SETVI (Foxtail, Green); rate 0.0313 kg/ha): 0.0 | Preemergence herbicidal rating SETVI (SETVI (Foxtail, Green); rate 0.0625 kg/ha): 1.0 | Preemergence herbicidal rating SETVI (SETVI (Foxtail, Green); rate 0.1250 kg/ha): 7.0 | Preemergence herbicidal rating SETVI (SETVI (Foxtail, Green); rate 0.2500 kg/ha): 7.0 | SAGPY herbicidal effect rating ([4]; 0.0313 kg/ha): 0.0 | SAGPY herbicidal effect rating ([4]; 0.0625 kg/ha): 0.0 | SAGPY herbicidal effect rating ([4]; 0.1250 kg/ha): 0.0 | SAGPY herbicidal effect rating ([4]; 0.2500 kg/ha): 0.0 | Preemergence herbicidal rating GLXMAW ([5]; rate 0.0156 kg/ha): 0.0 | Preemergence herbicidal rating GLXMAW ([5]; rate 0.0313 kg/ha): 0.0 | Preemergence herbicidal rating GLXMAW ([5]; rate 0.0625 kg/ha): 1.0 | Preemergence herbicidal rating GLXMAW ([5]; rate 0.1250 kg/ha): 1.0 | Preemergence herbicidal rating GLXMAW ([5]; rate 0.2500 kg/ha): 1.0 | Preemergence herbicidal rating AMBEL (AMBEL (Ragweed, Common) [6]; rate 0.0313 kg/ha): 0.0 | Preemergence herbicidal rating AMBEL (AMBEL (Ragweed, Common) [6]; rate 0.0625 kg/ha): 2.0 | Preemergence herbicidal rating AMBEL (AMBEL (Ragweed, Common) [6]; rate 0.1250 kg/ha): 9.0 | Preemergence herbicidal rating AMBEL (AMBEL (Ragweed, Common) [6]; rate 0.2500 kg/ha): 7.0 | Preemergence herbicidal rating CASOB (CASOB (Sicklepod); rate 0.0156 kg/ha): 1.0 | Preemergence herbicidal rating CASOB (CASOB (Sicklepod); rate 0.0313 kg/ha): 0.0 | Preemergence herbicidal rating CASOB (CASOB (Sicklepod); rate 0.0625 kg/ha): 0.0 | Preemergence herbicidal rating CASOB (CASOB (Sicklepod); rate 0.1250 kg/ha): 9.0 | Preemergence herbicidal rating CASOB (CASOB (Sicklepod); rate 0.2500 kg/ha): 9.0 | Herbicidal rating ECHORC ([7]; Rate 0.0313 kg/ha): 9.0 | Herbicidal rating ECHORC ([7]; Rate 0.0625 kg/ha): 9.0 | Herbicidal rating ECHORC ([7]; Rate 0.1250 kg/ha): 9.0 | Herbicidal rating ECHORC ([7]; Rate 0.2500 kg/ha): 9.0
